According to patent US11738001B2, “Pharmaceutical combinations and methods for the treatment of diabetes and associated disorders” (OTAGO INNOVATION LIMITED, priority 2017, dated 2023):
Values belong to the compound of their own block, whether it stands above or below them.

Tests used:
[1] = test system: phosphorylation of AKT (pAKT); experiment: central insulin signalling: pAKT immunoreactive cells in the arcuate nucleus (Experiment 10); assay type: in vivo, C57BL/6 mice; details: insulin 1 mg/kg 15 min before perfusion; LFD and HFD fed mice vs vehicle-injected
Description: To identify a mode of action of how the compounds, formulations and the extract affect glucose homeostasis, effects on central insulin signalling by measuring phosphorylation of AKT (pAKT) were investigated. AKT is the main target of insulin in the arcuate nucleus of the hypothalamus. To assess the degree of insulin action in the hypothalamus, phosphorylated AKT positive cells were counted. Mice were fed LFD or HFD for 4 weeks, fasted for 16 h and bodyweight matched. Sixty minutes before transcardial perfusion they received B (10 mg/kg), I (10 mg/kg), S (10 mg/kg), the mix (3.3 mg/kg of each compound), the extract (10 mg/kg) or vehicle (0.9% NaCl containing 5% ethanol) by oral gavage. Additionally, mice received an insulin (1 mg/kg) or vehicle injection 15 minutes before transcardial perfusion. Immunohistochemistry was carried out on mouse brain coronal cryosections as described previously in Benzler J, et al. Diabetes. […]
To investigate the molecular mechanisms and to identify the molecular targets of the mix and the extract, mice were fed either a HFD or LFD for 4 weeks followed by treatment with the mix (3.3 mg/kg body weight each) or the extract (10 mg/kg) acutely by oral gavage. […] The target protein of the insulin signalling pathway, pAKT, was visualized by immunohistochemistry and quantified by counting pAKT immunoreactive cells.

[2] = test system: diet-induced obese (DIO) mice; experiment: intraperitoneal glucose tolerance test (ipGTT), acute oral treatment (Experiments 1-5); assay type: in vivo, C57BL/6 mice; details: HFD 4 weeks
Description: (§1) For all experiments, 12-14 weeks old male C57BL/6 mice were obtained from the University of Otago animal facility. All procedures were approved by the University of Otago Animal Ethics Committee. Mice were housed individually under a 12:12 h light/dark cycle and ambient temperature was 23° C. Animals had either access to low-fat diet (LFD, containing 10% fat; cat. no. D12450B; Research Diets) or high-fat diet (HFD, containing 60% fat; cat. No. D12492; Research Diets) for a duration of 4 weeks, and water ad libitum. For each experiment a new cohort of animals was employed.
For all experiments, the formulations were prepared by forming an ethanol solution of the selected active ingredient(s), i.e. B, I or S individually, the mix or the extract, and then diluting to the desired concentration with 0.9 wt % NaCl aqueous solution.
To investigate whether the compounds either individually, a mixture of all three compounds (B, S and I; hereinafter referred to as “mix”) or the total extract of yellow Dahlia ‘Ruskin Diane’ petals acutely affect glucose homeostasis, intraperitoneal glucose tolerance tests (ipGTTs) were performed in diet-induced obese (DIO) mice as a model to mimic human prediabetes and impairments in glucose metabolism. Individual compounds, the mix or the total extract were dissolved in 0.9% NaCl containing 5% ethanol and administered orally. Mice (n=7-8/group) were fed either a high fat diet (HFD) or respective low fat diet (LFD) for 4 weeks, fasted for 16 h and received the different compounds/combinations or vehicle (0.9% NaCl containing 5% ethanol) by oral gavage. For example, for administration to a 50 g mouse, an oral gavage having a volume of 500 μl was prepared, the oral gavage contained 500 μg of extract or 50 μg of compound(s). The volume of the gavage administered was adjusted based on the weight of the mouse subject. Glucose (1.5 g/kg body weight; dissolved in 0.9% NaCl) was injected intraperitoneally (i.p.) 60 minutes after oral gavage treatment, and an ipGTT was performed. Blood glucose levels were measured using a commercially available glucometer (Accu-Check Performa; Roche) whilst truncating the tip of the tail with a fresh scalpel blade. For statistical validation, the area under the curve (AUC) was calculated.
These experiments establish dose responses of the individual compounds using different concentrations (20, 10, 3.3, 1, 0.33 mg/kg body weight), the mix (20, 10, 3.3, 1, 0.33 mg/kg body weight) or the extract (50, 20, 10, 3.3, 1 mg/kg) to determine the highest non-effective dose to allow for testing of synergism in combination with commercially available diabetes drugs in subsequent experiments. Mice were fed either LFD or HFD 4 weeks (Experiments 4 and 5). After mice were food deprived for 16 hours, an pGTT was carried out as previously described.
(§2) Data were analysed by one-way ANOVA or repeated measures ANOVA followed by multiple comparison test, as appropriate, using GraphPad Prism 5 software (Graphpad Software, Inc.). The results are presented as means ±SEM, and differences were considered significant if p≤0.05.

[3] = stability of extract and butein in vitro (RPLC); assay type: physicochemical
Description: Experiments were carried out on dissolving/dispersing Dahlia ‘Ruskin Diane’ extract into aqueous buffer. […] To confirm the cause of instability of the buffered extract, the stability of butein was assessed in aqueous buffer at pH7 (butein was stable at pH4). […] By contrast, butein was stable when diluted into EtOH and stored under ambient conditions (FIG. 16). […] The conversion of butein to sulfuretin is an oxidative cyclisation.

[4] = test system: diet-induced obese (DIO) mice; experiment: ipGTT after chronic metformin or pramlintide, alone or combined with the mix (Experiments 6-9); assay type: in vivo, C57BL/6 mice
Description: as §1
Separate cohorts of mice were treated with the respective control injections. Mice were fasted for 16 h and an ipGTT was performed as described.
After chronic treatment with the well described antidiabetic drugs mice were fasted for 16 h and received the mix acutely (0.33 mg/kg; containing 5% ethanol). 60 minutes later we carried out an ipGTT as described previously.
as §2

solubility = assay type: physicochemical; details: pH7 buffer solution
[5] = Experiment 1: 10 mg/kg (mix: 3.3 mg/kg of each compound) oral gavage 1 h before ipGTT, vs HFD control
[6] = Experiment 3: 3.3 mg/kg (each) orally 1 h before ipGTT

Compound: Insulin: insulin (1 mg/kg) injected to activate the insulin signalling pathway
pAKT positive cells in the arcuate nucleus [1]: markedly increased pAKT positive cells

Compound: O=C1/C(=C/c2ccc(O)c(O)c2)Oc2cc(O)ccc21 [S, Sulfuretin]
glucose tolerance in ipGTT [2, 5]: significantly improve glucose tolerance
glucose tolerance in ipGTT [2, 6]: improved glucose tolerance

Compound: O=C(/C=C/c1ccc(O)cc1)c1ccc(O)cc1O [I, Isoliquiritigenin]
glucose tolerance in ipGTT [2, 5]: trend towards an improved glucose homeostasis
glucose tolerance in ipGTT [2, 6]: improved glucose tolerance
stability (concentration over time) [3]: decreased in concentration much more slowly

Compound: CN(C)C(=N)N=C(N)N [metformin]
glucose tolerance in ipGTT ([4]; Experiment 6: 300 mg/kg/d oral, twice daily, last 7 days, p=0.004 vs HFD control): improved glucose tolerance
highest dose that did not improve glucose tolerance ([4]; Experiment 6: oral gavage twice daily for last 7 days, HFD 4 weeks): 100 mg/kg body weight

Compound: CC[C@H](C)[C@H](NC(=O)[C@@H]1CCCN1C(=O)CNC(=O)[C@H](Cc1ccccc1)NC(=O)[C@H](CC(N)=O)NC(=O)[C@H](CC(N)=O)NC(=O)[C@H](CO)NC(=O)[C@H](CO)NC(=O)[C@H](Cc1c[nH]cn1)NC(=O)[C@@H](NC(=O)[C@H](CC(C)C)NC(=O)[C@H](Cc1ccccc1)NC(=O)[C@H](CC(N)=O)NC(=O)[C@H](C)NC(=O)[C@H](CC(C)C)NC(=O)[C@H](CCCNC(=N)N)NC(=O)[C@H](CCC(N)=O)NC(=O)[C@@H](NC(=O)[C@H](C)NC(=O)[C@@H]1CSSC[C@H](NC(=O)[C@@H](N)CCCCN)C(=O)N[C@@H](CC(N)=O)C(=O)N[C@@H]([C@@H](C)O)C(=O)N[C@@H](C)C(=O)N[C@@H]([C@@H](C)O)C(=O)N1)[C@@H](C)O)C(C)C)C(=O)N[C@@H](CC(C)C)C(=O)N1CCC[C@H]1C(=O)N1CCC[C@H]1C(=O)N[C@H](C(=O)N[C@@H](CC(N)=O)C(=O)N[C@H](C(=O)NCC(=O)N[C@@H](CO)C(=O)N[C@@H](CC(N)=O)C(=O)N[C@H](C(=O)N[C@@H](Cc1ccc(O)cc1)C(N)=O)[C@@H](C)O)C(C)C)[C@@H](C)O [pramlintide]
glucose tolerance in ipGTT ([4]; Experiment 8: 1000 μg/kg/d s.c. twice daily for 5 days, p=0.0497 vs vehicle HFD): improved glucose tolerance
highest non-effective dose ([4]; Experiment 8: s.c. twice daily for last 5 days, HFD 4 weeks): 200 μg/kg/d body weight
glucose tolerance in ipGTT ([4]; Experiment 8: the other concentrations (200, 40, 8, 1.6 μg/kg/d s.c.)): no significant effect on glucose homeostasis
glucose tolerance in ipGTT ([4]; Experiment 9: pramlintide 200 μg/kg/d s.c. last 5 days and/or mix 0.33 mg/kg oral 1 h before ipGTT, vs HFD vehicle): neither pramlintide alone at 200 μg/kg/d body weight (FIG. 9A) nor the mix at 0.33 mg/kg body weight (FIG. 9B) was able to improve glucose tolerance

stability ([3]; aqueous buffer pH4): stable
rate of conversion to sulfuretin ([3]; attempts to exclude oxygen): slowed the reaction
stability ([3]; diluted into EtOH and stored under ambient conditions): stable
rate of conversion to sulfuretin ([3]; excluding light and adding a radical inhibitor): no effects on reaction rate
solubility (solubility): limited solubility
Compound: O=C(/C=C/c1ccc(O)c(O)c1)c1ccc(O)cc1O [B, Butein]
glucose tolerance in ipGTT [2, 5]: did not improve glucose tolerance
glucose tolerance in ipGTT ([2]; Experiment 2: 3.3 mg/kg of each compound orally 1 h before ipGTT, vs vehicle treated HFD mice): no effect on glucose tolerance
stability ([3]; EtOH or DMSO solutions diluted into aqueous buffer at pH7, room temperature): linear (zero order kinetics) conversion of butein to sulfuretin over time
